Data taken from patent US20240065999A1, “Ophthalmic Formulation Containing a Dopaminergic Prodrug that may be Combined with One or More Agents” (The Board of Trustees of the Leland Stanford Junior …, priority 2020, published 2024).
Converted amounts (≈) assume the structure as drawn. Structures can show the parent of a compound that is named as a salt. Where two headings read alike, the source gives them in different places.

How the values were obtained:
[1] = pig, 24 h, 0.5 %
Description: (§1) To assess the vitreous penetration, dopamine (dopamine hydrochloride; Sigma-Aldrich, St. Louis, Mo., USA), and etilevodopa (BOC Sciences, Shirley, N.Y., USA) were freshly dissolved in phosphate buffered saline solution (PBS, pH 7.4; Aniara, West Chester, Ohio, USA) at the concentration of 0.5%, whereas levodopa (Sigma-Aldrich) was freshly dissolved in distilled water at 0.5%. Thirty microliters of each solution was placed onto the cornea of enucleated porcine eyes (Animal Technologies, Tyler, Tex., USA; at least six porcine eyes were studied for each treatment), which were no more than 30 hours since enucleation and were maintained on ice throughout experimentation. PBS was used as a vehicle control. The vitreous humor sample was collected after 24 hours for quantitative measurement of dopaminergic derivative level using an enzyme-linked immunosorbent assay (ELISA) kit according to the manufacturers' protocol (dopamine ELISA kit; Immuno-Biological Laboratories, Inc., Minneapolis, Minn., USA).

[2] = system: Long Evans rat eyes; assay: Clinical examination, OCT imaging and ERG after once-daily topical etilevodopa; assay type: in vivo
Method: Etilevodopa 10% 5 μL was administered as an eye drop once daily to one eye of each rat for 28 consecutive days, and the contralateral eye received PBS as a control. To assess the tolerability after administering etilevodopa over time, clinical examination was conducted at 14 and 28 days during treatment. To assess retinal structure and function, spectral-domain OCT (Spectralis HRA+OCT instrument; Heidelberg Engineering, Heidelberg, Germany) and full-field ERG (D300; Diagnosys LLC, Lowell, Mass., USA) were also performed at 14 and 28 days. Briefly, rats were first anesthetized with intraperitoneal injection of a mixture of ketamine hydrochloride (75 mg/kg; Hospira, Inc., Lake Forest, Ill., USA) and xylazine (5 mg/kg; Bedford Laboratories, Bedford, Ohio, USA). The corneas were topically anesthetized with tetracaine 0.5% (Alcon Laboratories, Inc. Fort Worth, Tex., USA), and the pupils were dilated with tropicamide 1% (Akorn, Inc., Lake Forest, Ill., USA) and phenylephrine hydrochloride 2.5% (Akorn, Inc.).
For clinical examination, 1% methylcellulose and a plastic coverslip were applied to the cornea to enhance visualization. A Zeiss OPMI MDO S5 Microscope (Prescott's, Inc., Monument, Col., USA) with an Excelis camera (ACCU-SCOPE, Inc., Commack, N.Y., USA) was used to digitally record ocular photos.
For OCT, 1% methylcellulose and a coverslip were placed on the anesthetized rat cornea. A commercially available 78-D double aspheric fundus lens (Volk Optical, Inc., Mentor, Ohio, USA) was mounted in front of the OCT and images were taken with proprietary software (Eye Explorer, version 3.2.1.0; Heidelberg Engineering). A raster scan of 19 equally spaced horizontal B-scans centered on the optic nerve was captured.
For full-field ERG, rats were dark-adapted overnight. A gold wire loop was placed on the cornea of both eyes, a reference electrode was placed subcutaneously on the nose, and a ground electrode was placed in the tail. ERG responses were recorded from both eyes simultaneously. The flash intensity was set at six increasing intensities of 0.0001, 0.001, 0.01, 0.1, 1, and 3 cd·s/m2. ERG recordings were averaged over 10 presentations of a single one-millisecond flash with a 10-second interstimulus interval. The A-wave amplitude was measured from the baseline to trough, while the B-wave was measured from the trough to peak.

[3] = Maximum solubility / achievable concentration of topical solutions; assay type: physicochemical
Description: PBS was used as a vehicle control.

[4] = Observation of rat behavior during the 28-day study; assay type: in vivo; settings: once-daily topical etilevodopa
[5] = Ex vivo ocular penetration of dopamine and dopaminergic derivatives in enucleated porcine eyes (dopamine ELISA); settings: topical
Description: as §1

[6] = In vivo pharmacokinetics after a single topical treatment of etilevodopa 10% in Long Evans rat eyes; settings: single topical etilevodopa 10%, noncompartmental analysis
Method: To assess the short-term pharmacokinetic effect, 5 μL of etilevodopa 10% was instilled onto a rat eye. At one, two, four, eight, and 24 hours, rats were sacrificed (at least three rats were studied at each time point). Serum was obtained by allowing the blood sample to clot at room temperature for 0.5 to 1 hour, followed by centrifuging at 13,000 rpm for 10 minutes (MiniSpin Eppendorf; Thermo Fisher Scientific, Waltham, Mass., USA). Serum was then frozen at −80° C. until tested. Eyes were enucleated and collected for quantitative measurement of dopaminergic derivative levels. Concentrations of dopaminergic derivative in both whole eye and vitreous/retina were measured for pharmacokinetic evaluation. Briefly, tissue samples were incubated with 150 μL lysis buffer (CelLytic MT Cell Lysis Reagent; Sigma-Aldrich) for 0.5 to 1 hour, followed by centrifuge at 13,000 rpm for 10 minutes, and the supernatant was collected. All samples were immediately frozen at −80° C. until tested. The level of dopaminergic derivative was measured in both serum and eye using a dopamine ELISA kit (Immuno-Biological Laboratories, Inc.) according to the manufacturer's instruction.

[7] = system: rat eyes; assay: Histology and immunohistochemistry (H&E, cleaved caspase-3, TUNEL) of rat eyes; assay type: in vivo, Long Evans rat; settings: 5 μL etilevodopa 10% once daily, 14 and 28 days
Method: To assess for inflammation and apoptosis, 5 μL of etilevodopa 10% was administered as a once-daily eye drop to one eye of each rat, and the contralateral eye received PBS as a control. Rat eyes were enucleated at 14 and 28 days after treatment and fixed in 4% paraformaldehyde (VWR, Visalia, Calif., USA) overnight at 4° C., dehydrated in graded series of sucrose and alcohol, frozen, and cut into 12 μm sections onto glass slides.
For inflammation, frozen sections were first fixed in 10% formalin (Sigma-Aldrich) for 20 minutes and washed in water, followed by staining the nuclei with hematoxylin for three minutes and washing in water again. The slides were then dipped in lithium carbonate (bluing agent) for 45 seconds, washed in water, immersed in 95% ethanol (2-3 dips), and stained with eosin for another three minutes. After dehydrating in 95% ethanol for one minute and then in 100% ethanol for two minutes, the slides were mounted with Cytoseal 60 and imaged using Nikon Eclipse E800 microscope (Nikon Corp., Tokyo, Japan).
For apoptosis, sections were stained with cleaved caspase-3 (Cell Signaling, Beverly, Mass., USA). Briefly, sections were first washed with washing buffer (0.1% Triton X-100 in PBS) three times for five minutes each, blocked with 5% bovine serum albumin (Fraction V; Sigma-Aldrich) in washing buffer for one hour, followed by incubating in primary antibody-cleaved caspase-3 (1:200 in washing buffer) for two hours. After washing three times for five minutes each, sections were incubated in secondary antibody (AlexaFluor 488 donkey anti-rabbit IgG; 1:400; Invitrogen, Waltham, Mass., USA) in washing buffer for one hour, followed by washing another three times and mounting with 4′,6-diamidino-2-phenylindole (DAPI)-containing mounting media (Vectashield; Vector Laboratories, Burlingame, Calif., USA). Slides were imaged using Leica DMi8 microscope (Leica Microsystems Inc., Buffalo Grove, Ill., USA). Terminal deoxynucleotidyl transferase dUTP nick end labeling (TUNEL) assay was also performed to further detect apoptosis using TUNEL label mix kit (Sigma-Aldrich). […]

[8] = ibopamine for hypotony, before 24 weeks; cited from earlier work
[9] = system: intravitreal dopamine; settings: chick eyes with negative lenses, after three days of treatment; cited from earlier work
[10] = system: axial elongation; assay: Reduction of axial elongation by levodopa in chicks (Thomson et al.); assay type: in vivo; settings: Gallus gallus; calculated using a chick vitreous volume of 200 μL; read-out: EC50 as intravitreal concentration
[11] = system: axial elongation; settings: chick, Thomson et al., cited from earlier work
[12] = system: myopic progression; settings: ATOM trial, cited from earlier work
[13] = 1% atropine nightly in one eye over two years

For `NCCc1ccc(O)c(O)c1` [dopamine, dopamine hydrochloride], the “concentration of dopaminergic derivatives in the vitreous” value [1] was 375.1 ng/mL and the “fold higher intravitreal concentration as compared to etilevodopa 10%” value [1] was 10 fold.

In the case of `CCOC(=O)[C@@H](N)Cc1ccc(O)c(O)c1` [etilevodopa], the direct toxicity ([2]; four-week application as a topical eye drop) is reported as “no evidence of direct toxicity”, the “ERG A-wave amplitude, treated vs control eyes” value ([2]; in vivo) is reported as “no statistically significant difference” and the “ERG B-wave amplitude, treated vs control eyes” value ([2]; in vivo) is reported as “no statistically significant difference”. The OCT retinal structure ([2]; in vivo) was “did not demonstrate any qualitative structural changes”, the “clinical eye photos (inflammatory response, corneal opacity, fundus abnormalities, conjunctival redness)” value ([2]; in vivo) was “no evidence of inflammatory response, corneal opacity, fundus abnormalities, or conjunctival redness” and the “cornea and lens clarity” value ([2]; in vivo) was “remained clear”. The “overall retina morphology and blood vessels” value ([2]; in vivo) was “remained unchanged”, the “retinal detachment, edema or inflammation” value ([2]; in vivo) was “No retinal detachment, edema or inflammation was observed” and the maximum solubility ([3]; PBS, pH 7.4) was 10%. For the same molecule, the “rat behavior (activity levels, aggression, feeding pattern, weight gain)” value [4] was “no obvious changes in rat behavior”, the “corneal penetration as compared to levodopa at a given concentration” value [5] was “did not exhibit enhanced corneal penetration” and the AUC0→∞ ([6]; blood) was 11.2 ng·h/mL. For the same molecule, the AUC0→∞ ([6]; retina/vitreous) was 818 ng·h/mL, the AUC0→∞ ([6]; whole eye) was 4300 ng·h/mL and the “TUNEL+ DAPI+ cells” value [7] was “no TUNEL+ DAPI+ cells observed”. For the same molecule, the “hematoxylin and eosin staining of the retina” value [7] was “no infiltration of inflammatory cells, fibrosis or morphological changes” and the “number of cleaved caspase-3+ DAPI+ cells, treatment vs control” value [7] was “no statistically significant change”.

For `CNCCc1ccc(OC(=O)C(C)C)c(OC(=O)C(C)C)c1` [ibopamine], the “patients who stopped using the drug due to follicular conjunctivitis or irritation” value [8] is given as 8 of 17.

In the case of “insulin (Insulin B chain AANQHLCGSHLVEALYLVCGERGFFYSPKA; Insulin A chain GIVEQCCHNTCSLYQLENYCN; UniProt P67970 25-54; P67970 87-107, looked up) [insulin injected into chick eyes treated with negative lenses]”, the “increase in intravitreal dopamine” value [9] is listed as 2 fold.

In the case of `N[C@@H](Cc1ccc(O)c(O)c1)C(=O)O` [levodopa], the maximum concentration achievable ([3]; distilled water) is reported as 0.5%, the “concentration of dopaminergic derivatives in the vitreous” value [1] is reported as 11.9 ng/mL and the EC50 [10] is reported as roughly 7.9 ng/mL (≈ 0.0401 µM). For the same molecule, the EC50 ([11]; intravitreal administration, 10 μL dose, read-out: EC50 for a reduction of axial elongation) was 800 nM and the “EC50 for a reduction of axial elongation” value ([11]; topical levodopa) was 0.05%.

In the case of `CN1[C@@H]2CC[C@H]1C[C@@H](OC(=O)C(CO)c1ccccc1)C2` (some centres unmarked) [atropine], the diopter difference [12, 13] is given as “~+0.8 diopter”, the “reduction of myopic progression” value [12, 13] is given as 77% and the axial length ([12]; 1% atropine nightly over two years) is given as “remained unchanged”.
